Results: patent publication US9920073B2, “Compositions useful for inhibiting HIV-1 infection and methods using same” (Drexel University, priority 2013, dated 2018)
Where two headings read alike, the source gives them in different places.

Key:
Experiment in all cases: microbe, parasite or virus in culture
Format in all cases: cell-based
HIV-1JR-CSF = tested on: HIV-1JR-CSF
HIV-1YU-2 = tested on: HIV-1YU-2
HIV-1HxBc2 = conditions: Human immunodeficiency virus 1, read-out: IC50 HxBc2
[1] = tested on: amphotropic murine leukemia virus (AMLV); conditions: for IC50: specificity control
[2] = read-out: IC50 JR-CSF, single round infection assay
[3] = Human immunodeficiency virus 1, read-out: IC50 YU-2, single round infection assay
[4] = Human immunodeficiency virus 1, read-out: IC50 JR-CSF
[5] = Murine leukemia virus, read-out: IC50 AMLV, Table 2 screening results
[6] = read-out: IC50 YU-2, single round infection assay

Structure (SMILES)	IC50 (HIV-1YU-2; [3]) [µM]	IC50 [1, 5] [µM]	further results
O=C(c1ccccc1)N1CC2CN(C(=O)c3ccc4c5c(cccc35)CC4)CC2C1 (stereo not drawn) [SC04, (5-benzoylhexahydropyrrolo[3,4-c]pyrrol-2(1H)-yl)(1,2-dihydroacenaphthylen-5-yl)methanone]	70 ± 6		IC50 (HIV-1JR-CSF; [2]): 100 ± 30 µM
COc1cnc(-n2cnc(C)n2)c2[nH]cc(C(=O)C(=O)N(C)C3CN(C(=O)c4ccccc4)C3)c12 [SC18, N-(1-benzoylazetidin-3-yl)-2-(4-methoxy-7-(3-methyl-1H-1,2,4-triazol-1-yl)-1H-pyrrolo[2,3-c]pyridin-3-yl)-N-methyl-2-oxoacetamide]			IC50 (HIV-1JR-CSF; [4]): 1.3 ± 0.2 µM; IC50 (HIV-1HxBc2): 102 ± 160 µM
O=C(c1ccccc1)N1CCN(C(=O)c2ccc3c4c(cccc24)CC3)CC1 [SC03, (4-benzoylpiperazin-1-yl)(1,2-dihydroacenaphthylen-5-yl)methanone]	13.1 ± 1.7		IC50 (HIV-1JR-CSF; [4]): 0.42 ± 0.28 µM
COc1cnc(-n2cnc(C)n2)c2[nH]cc(C(=O)C(=O)N3CC4CN(C(=O)c5ccccc5)CC4C3)c12 (stereo not drawn) [SC11, 1-(5-benzoylhexahydropyrrolo[3,4-c]pyrrol-2(1H)-yl)-2-(4-methoxy-7-(3-methyl-1H-1,2,4-triazol-1-yl)-1H-pyrrolo[2,3-c]pyridin-3-yl)ethane-1,2-dione]			IC50 (HIV-1JR-CSF; [2]): 0.0008 ± 0.0004 µM; specificity to HIV-1 (inhibition of AMLV-pseudotyped HIV-1) ([1]; single round infection assay, in words): retaining HIV-1 specificity
COc1cnc(-n2cnc(C)n2)c2[nH]cc(C(=O)C(=O)N3CC=C(CNC(=O)c4ccccc4)CC3)c12 [SC45, N-((1-(2-(4-methoxy-7-(3-methyl-1H-1,2,4-triazol-1-yl)-1H-pyrrolo[2,3-c]pyridin-3-yl)-2-oxoacetyl)-1,2,3,6-tetrahydropyridin-4-yl)methyl)benzamide]			IC50 (HIV-1JR-CSF; [4]): 0.15 ± 0.009 µM; IC50 (HIV-1HxBc2): 0.1 ± 0.03 µM
O=C(C(=O)N1CC2C=NN(c3ccccc3)C2C1)c1c[nH]c2c(-n3ccnn3)ncc(F)c12 (stereo not drawn) [SC38, 1-(4-fluoro-7-(1H-1,2,3-triazol-1-yl)-1H-pyrrolo[2,3-c]pyridin-3-yl)-2-(1-phenyl-3a,4,6,6a-tetrahydropyrrolo[3,4-c]pyrazol-5(1H)-yl)ethane-1,2-dione]			IC50 (HIV-1HxBc2): 0.008 ± 0.003 µM
COc1cnc(-n2cnc(C)n2)c2[nH]cc(C(=O)C(=O)N3CC(CCC(=O)c4ccccc4)C3)c12 [SC15, 1-(4-methoxy-7-(3-methyl-1H-1,2,4-triazol-1-yl)-1H-pyrrolo[2,3-c]pyridin-3-yl)-2-(3-(3-oxo-3-phenylpropyl)azetidin-1-yl)ethane-1,2-dione]			IC50 (HIV-1JR-CSF; [4]): 0.002 ± 0.0001 µM; IC50 (HIV-1HxBc2): 0.003 ± 0.0005 µM
COc1ccc(Cl)cc1C(=O)Cn1c(=O)oc2cc(S(=O)(=O)N3CCOCC3)ccc21 [Compound 43]	> 50	> 50	
COc1ccc(OC)c(CCC(=O)N2CCN(C(=O)c3cccc(OC(F)F)c3)CC2)c1 [Compound 44]	> 50	> 50	
O=C(c1ccccc1)N1CCN(C(=O)c2ccc3c4c(cccc24)CC3)CC1 [Compound 11]		> 300	IC50 (HIV-1YU-2; [6]): 15.7 µM
O=C(c1ccccc1)N1CCN(C(=O)c2ccc3c(c2)CCC3)CC1 [Compound 8]	> 300	> 300	
CCN(CC)S(=O)(=O)N1CCN(C(=O)C(=O)c2c(C)[nH]c3ccccc23)CC1 [Compound 48]	> 50	> 50	
Cc1cccc(C(=O)N2CCN(S(=O)(=O)c3ccc(C)c(C)c3)CC2)c1 [Compound 10]	> 300	> 300	
COc1cnc(-n2cnc(C)n2)c2[nH]cc(C(=O)C(=O)N3CC4C=NN(c5cccc(C)n5)C4C3)c12 (stereo not drawn) [SC24, 1-(4-methoxy-7-(3-methyl-1H-1,2,4-triazol-1-yl)-1H-pyrrolo[2,3-c]pyridin-3-yl)-2-(1-(6-methylpyridin-2-yl)-3a,4,6,6a-tetrahydropyrrolo[3,4-c]pyrazol-5(1H)-yl)ethane-1,2-dione]			IC50 (HIV-1JR-CSF; [4]): 0.7 ± 0.4 µM
Cc1c(C)c(C)c(S(=O)(=O)N2CCN(C(=O)c3cccnc3O)CC2)c(C)c1C [Compound 21]	> 300	> 300	
Cc1[nH]c2ccccc2c1C(=O)C(=O)N1CCC(C(=O)c2ccc(O)cc2)CC1 [Compound 40]	> 50	> 50	
COc1ncc(OC)c2c(C(=O)C(=O)N3CC4CCC(c5ccccc5)C4C3)c[nH]c12 (stereo not drawn) [SC10, 1-(4,7-dimethoxy-1H-pyrrolo[2,3-c]pyridin-3-yl)-2-(4-phenylhexahydrocyclopenta[c]pyrrol-2(1H)-yl)ethane-1,2-dione]			IC50 (HIV-1JR-CSF; [4]): 0.42 ± 0.11 µM; IC50 (HIV-1HxBc2): 4.81 ± 4.1 µM

Structure (SMILES)	IC50 (HIV-1YU-2; [3]) [µM]	IC50 [1, 5] [µM]	further results
O=C(C1=Cc2cc(Br)ccc2OC1)N1CCN(C(=O)c2ccccc2)CC1 [Compound 19]	> 300	> 300	
O=C(Cc1cccc2ccccc12)N1CCN(C(=O)c2ccco2)CC1 [Compound 32]	22.8	> 50	
O=C(CCC(=O)N1CCN(C(=O)c2ccccc2)CC1)c1ccc(Cl)s1 [Compound 2]	> 300	> 300	
Cc1ccc(C(C)C)c(OCC(=O)N2CCN(C(=O)c3ccccc3)CC2)c1 [Compound 18]			IC50 (HIV-1YU-2; [6]): > 300 µM; IC50 ([1]; read-out: IC50 AMLV, Table 2 screening results): > 300 µM
O=C(c1ccccc1)N1CCN(C(=O)c2ccc3noc(-c4ccccc4)c3c2)CC1 [Compound 46]	> 50	> 50	
O=C(c1cnccn1)N1CCN(C(=O)c2cc3ccccc3cc2O)CC1 [Compound 24]	> 300	> 300	
CC(C(=O)N1CCCc2ccccc21)N1CCN(C(=O)c2ccccc2)CC1 (stereo not drawn) [Compound 25]	> 50	> 50	
COc1cnc(-n2cnc(C)n2)c2[nH]cc(C(=O)C(=O)N3CC(CSC(=O)c4ccccc4)C3)c12 [SC16, S-((1-(2-(4-methoxy-7-(3-methyl-1H-1,2,4-triazol-1-yl)-1H-pyrrolo[2,3-c]pyridin-3-yl)-2-oxoacetyl)azetidin-3-yl)methyl) benzothioate]			IC50 (HIV-1JR-CSF; [4]): 0.1 ± 0.02 µM; IC50 (HIV-1HxBc2): 0.15 ± 0.03 µM
Cc1nn(C)c2nc(-c3cccs3)cc(C(=O)N3CCN(C(=O)c4ccccc4)CC3)c12 [Compound 38]	> 50	> 50	
Cc1ncn(-c2ncc(F)c3c(C(=O)C(=O)N4CC5C=NN(c6nnnn6-c6ccccc6)C5C4)c[nH]c23)n1 (stereo not drawn) [SC39, 1-(4-fluoro-7-(3-methyl-1H-1,2,4-triazol-1-yl)-1H-pyrrolo[2,3-c]pyridin-3-yl)-2-(1-(1-phenyl-1H-tetrazol-5-yl)-3a,4,6,6a-tetrahydropyrrolo[3,4-c]pyrazol-5(1H)-yl)ethane-1,2-dione]			IC50 (HIV-1HxBc2): 35.3 ± 9.3 µM
O=C(COc1ncnc2sc(-c3ccccc3)cc12)N1CCN(C(=O)c2ccco2)CC1 [Compound 26]	> 50	> 50	
O=C(c1ccccn1)N1CCN(S(=O)(=O)c2ccc3ccccc3c2)CC1 [Compound 1]	> 300	> 300	
COc1cnc(-n2cnc(C)n2)c2[nH]cc(C(=O)C(=O)NCC3CN(C(=O)c4ccccc4)C3)c12 [SC14, N-((1-benzoylazetidin-3-yl)methyl)-2-(4-methoxy-7-(3-methyl-1H-1,2,4-triazol-1-yl)-1H-pyrrolo[2,3-c]pyridin-3-yl)-2-oxoacetamide]			IC50 (HIV-1JR-CSF; [4]): 2.5 ± 0.4 µM; IC50 (HIV-1HxBc2): 1.2 ± 0.4 µM
O=C(CSc1nnnn1C1CCCC1)N1CCN(C(=O)c2cccs2)CC1 [Compound 30]	> 50	> 50	
COc1ccc(O)cc1NCC(=O)N1CCN(S(=O)(=O)c2ccc3c(c2)CCC3)CC1 [Compound 42]	> 50	> 50	
O=C(CSC1=Nc2ccccc2CS1)N1CCN(C(=O)c2cccs2)CC1 [Compound 41]	> 50	> 50	
